Results: ChEMBL document CHEMBL5506074, “Discovery and Optimization of Tetrahydroisoquinoline Derivatives To Enhance Lysosome Biogenesis as Preclinical Candidates for the Treatment of Alzheimer's Disease” (J Med Chem, 2024)

How the values were obtained:
Format in all cases: functional
[1] = Induction of TFEB nuclear translocation in human HeLa cells expressing EGFP at 30 uM measured at 6 hrs by fluorescence microscopic analysis
[2] = Induction of TFEB nuclear translocation in human HeLa cells expressing EGFP at 30 uM measured at 3 hrs by fluorescence microscopic analysis
[3] = Induction of TFEB nuclear translocation in human HeLa cells expressing EGFP at 10 uM measured at 3 hrs by fluorescence microscopic analysis
[4] = Induction of TFEB nuclear translocation in human HeLa cells expressing EGFP at 10 uM measured at 6 hrs by fluorescence microscopic analysis

NC(=O)CN1CCc2cc3c(cc2C1CCc1c[nH]c2ccccc12)OCO3 (centres undefined) gave an Activity [1] of 20%, an Activity [2] of 20% and an Activity [3] of 5%. It also gave an Activity [4] of 5%.
COc1cc2c(cc1OC)C(CCc1c[nH]c3ccc(C)cc13)N(CC1CCOCC1)CC2 (centres undefined) gave an Activity [1] of 91%, an Activity [2] of 92% and an Activity [3] of 38%. The Activity [4] was 53%.
With COc1cc2c(cc1F)C(CCc1c[nH]c3ccccc13)N(CC1CCOCC1)CC2 (centres undefined) the Activity [1] was 79%, the Activity [2] was 70% and the Activity [3] was 17%. It also gave an Activity [4] of 31%.
c1ccc2c(CC[C@H]3NCCc4cc5c(cc43)OCO5)c[nH]c2c1 gave an Activity [1] of 77%, an Activity [2] of 76% and an Activity [3] of 18%. For the same compound, the Activity [4] was 23%.
Compound N#Cc1ccc2[nH]cc(CCC3c4cc5c(cc4CCN3CC3CCOCC3)OCO5)c2c1 (centres undefined) has an Activity [1] of 64%, an Activity [2] of 64% and an Activity [3] of 10%. It also gave an Activity [4] of 10%.
Work on c1ccc2c(CCC3c4cc5c(cc4CCN3CCC3CCOCC3)OCO5)c[nH]c2c1 (centres undefined) yielded an Activity [1] of 80%, an Activity [2] of 65% and an Activity [3] of 5%. For the same compound, the Activity [4] was 5%.
c1ccc2[nH]c(CCC3c4cc5c(cc4CCN3CC3CCOCC3)OCO5)cc2c1 (centres undefined) showed an Activity [1] of 39%, an Activity [2] of 39% and an Activity [3] of 5%. It also gave an Activity [4] of 5%.
With CC(C)CCN1CCc2cc3c(cc2C1CCc1c[nH]c2ccccc12)OCO3 (centres undefined) the Activity [1] was 80%, the Activity [2] was 70% and the Activity [3] was 20%. It also gave an Activity [4] of 20%.
Compound c1ccc(COc2ccc3[nH]cc(CCC4c5cc6c(cc5CCN4CC4CCOCC4)OCO6)c3c2)cc1 (centres undefined) has an Activity [1] of 88%, an Activity [2] of 75% and an Activity [3] of 12%. For the same compound, the Activity [4] was 30%.
With Cn1cc(CCC2c3cc4c(cc3CCN2CC2CCOCC2)OCO4)c2ccccc21 (centres undefined) the Activity [1] was 26%, the Activity [2] was 26% and the Activity [3] was 5%. The Activity [4] was 5%.
CCCN1CCc2cc3c(cc2C1CCc1c[nH]c2ccccc12)OCO3 (centres undefined) gave an Activity [1] of 80%, an Activity [2] of 55% and an Activity [3] of 11%. It also gave an Activity [4] of 12%.
CCOc1cc2c(cc1OC)CCN(CC1CCOCC1)C2CCc1c[nH]c2ccccc12 (centres undefined) gave an Activity [1] of 82%, an Activity [2] of 75% and an Activity [3] of 17%. The Activity [4] was 28%.
Compound CC(C)CN1CCc2cc3c(cc2C1CCc1c[nH]c2ccccc12)OCO3 (centres undefined) has an Activity [1] of 82%, an Activity [2] of 74% and an Activity [3] of 20%. For the same compound, the Activity [4] was 20%.
c1ccc2c(CC[C@@H]3NCCc4cc5c(cc43)OCO5)c[nH]c2c1 gave an Activity [1] of 96%, an Activity [2] of 89% and an Activity [3] of 30%. For the same compound, the Activity [4] was 34%.
With Fc1ccc2[nH]cc(CC[C@H]3c4cc5c(cc4CCN3CC3CCOCC3)OCO5)c2c1 the Activity [1] was 98%, the Activity [2] was 90% and the Activity [3] was 56%. For the same compound, the Activity [4] was 60%.
In the case of CCC(=O)N1CCN(c2ccc(-n3c(=O)ccc4cnc5ccc(-c6cnc7ccccc7c6)cc5c43)cc2C(F)(F)F)CC1 [TORIN1], the Activity [1] is reported as 100%, the Activity [2] is reported as 100% and the Activity [3] is reported as 100%. For the same compound, the Activity [4] was 100%.
For Fc1ccc2[nH]cc(CCC3NCCc4cc5c(cc43)OCO5)c2c1 (centres undefined), the Activity [1] was 92%, the Activity [2] was 88% and the Activity [3] was 36%. It also gave an Activity [4] of 54%.
With c1ccc2c(CCC3c4cc5c(cc4CCN3Cc3cncnc3)OCO5)c[nH]c2c1 (centres undefined) the Activity [1] was 20%, the Activity [2] was 20% and the Activity [3] was 10%. It also gave an Activity [4] of 10%.
COc1cc2c(cc1C)C(CCc1c[nH]c3ccccc13)N(CC1CCOCC1)CC2 (centres undefined) gave an Activity [1] of 81%, an Activity [2] of 76% and an Activity [3] of 18%. The Activity [4] was 30%.
Compound Oc1ccc2[nH]cc(CCC3c4cc5c(cc4CCN3CC3CCOCC3)OCO5)c2c1 (centres undefined) has an Activity [1] of 81%, an Activity [2] of 72% and an Activity [3] of 15%. The Activity [4] was 21%.
COc1cc2c(cc1OC)C(CCc1c[nH]c3ccc(Br)cc13)N(CC1CCOCC1)CC2 (centres undefined) gave an Activity [1] of 94%, an Activity [2] of 89% and an Activity [3] of 53%. For the same compound, the Activity [4] was 63%.
